The values that follow come from ChEMBL document CHEMBL5370526, “Recent advances in EZH2-based dual inhibitors in the treatment of cancers” (Eur J Med Chem, 2023).

Test [1] concerns the target T1, Histone-lysine N-methyltransferase EZH2 (Homo sapiens, UniProt Q15910). Description: Inhibition of EZH2 (unknown origin) using plate-coated histone as substrate at 5 uM incubated for 90 mins in presence of 5 uM SAM by AlphaScreen assay.
In test [2] the test system is MCF-10A. In words: Antiproliferative activity against human MCF-10A cells assessed as cell growth inhibition measured after 72 hrs by MTT assay. The format is functional, cell-based.
The subject of test [3] is ASPC1. Description: Antiproliferative activity against human ASPC1 cells harboring KRAS G12D mutant assessed as reduction in cell growth measured after 72 hrs by MTT assay. The test is classed as functional, cell-based. Conditions: ASPC1, 72 h.
In test [4] the target is T1, Histone-lysine N-methyltransferase EZH2. In words: Inhibition of EZH2 methyltransferase activity in human PA-1 cells assessed as reduction in H3K27me3 level measured after 4 days by Western blot analysis. The format is cell-based.
Test [5] relates to A549. In words: Antiproliferative activity against human A549 cells assessed as reduction in cell viability measured after 48 hrs by MTT assay. The format is functional, cell-based. The following applies: A549, 48 h.
Test [6] has as its target T1, Histone-lysine N-methyltransferase EZH2. In words: Inhibition of wildtype EZH2 (unknown origin).
Test [7] concerns HCT-116. Description: Cytotoxicity against human HCT-116 cells assessed as reduction in cell viability measured after 72 hrs by MTT assay. The format is functional, cell-based. Conditions: HCT-116, 72 h.
The test system of test [8] is KARPAS-422. In words: Growth inhibition of human KARPAS-422 cells assessed as reduction in cell viability measured after 72 hrs by MTT assay. The test is classed as functional.
Test [9] concerns MV4-11. Description: Growth inhibition of human MV4-11 cells assessed as reduction in cell viability measured after 72 hrs by MTT assay. The test is classed as functional.
The test system of test [10] is RS4-11. Description: Growth inhibition of human RS4-11 cells assessed as reduction in cell viability measured after 72 hrs by MTT assay. The format is functional.
Test [11] can be described thus: Antiproliferative activity against human DLBCL cells assessed as reduction in cell viability measured after 72 hrs by MTT assay. The test is classed as functional, cell-based.
In test [12] the target is T1, Histone-lysine N-methyltransferase EZH2.
Description: Inhibition of human EZH2 using core histone as substrate incubated for 1 hr by fluorescence based assay
Test [13] shares this target. This is another data set of the same source.
Description: Inhibition of human EZH2 in human MCF-10A cells assessed as reduction in H3K27me3 levels incubated for 72 hrs by Western blot analysis
The target of test [14] is Histone-lysine N-methyltransferase EZH2 (Homo sapiens, UniProt Q15910, Y641F). Description: Inhibition of N-terminal FLAG-tagged recombinant full-length human EZH2 Y641F mutant in PRC2 complex expressed in baculovirus infected Sf9 cells using H3K27me0 biotin/SAM as substrate preincubated for 10 mins followed by substrate addition measured after 4 hrs by HTRF assay.
Test [15] concerns G-401. In words: Growth inhibition of human G-401 cells assessed as reduction in cell viability measured after 72 hrs by MTT assay. The format is functional.
For test [16], the system named is NCI-N87. Description: Growth inhibition of human NCI-N87 cells assessed as reduction in cell viability measured after 72 hrs by MTT assay. The test is classed as functional.
Test [17] has as its system KARPAS-422. In words: Antitumor activity against human KARPAS-422 cells xenografted in nude mouse assessed as reduction in tumor growth at 100 mg/kg, po administered once daily for 14 consecutive days relative to control. The test is classed as functional. The following applies: read-out: TGI.
The target of test [18] is T1, Histone-lysine N-methyltransferase EZH2. Description: Inhibition of EZH2 (unknown origin) using SAM as substrate preincubated for 10 mins followed by substrate addition and measured after 4 hrs by HTRF assay.

The structures appear in SMILES notation. A value given as a limit tells only on which side of the number the result lay.

T1 sequence (Q15910 whole entry): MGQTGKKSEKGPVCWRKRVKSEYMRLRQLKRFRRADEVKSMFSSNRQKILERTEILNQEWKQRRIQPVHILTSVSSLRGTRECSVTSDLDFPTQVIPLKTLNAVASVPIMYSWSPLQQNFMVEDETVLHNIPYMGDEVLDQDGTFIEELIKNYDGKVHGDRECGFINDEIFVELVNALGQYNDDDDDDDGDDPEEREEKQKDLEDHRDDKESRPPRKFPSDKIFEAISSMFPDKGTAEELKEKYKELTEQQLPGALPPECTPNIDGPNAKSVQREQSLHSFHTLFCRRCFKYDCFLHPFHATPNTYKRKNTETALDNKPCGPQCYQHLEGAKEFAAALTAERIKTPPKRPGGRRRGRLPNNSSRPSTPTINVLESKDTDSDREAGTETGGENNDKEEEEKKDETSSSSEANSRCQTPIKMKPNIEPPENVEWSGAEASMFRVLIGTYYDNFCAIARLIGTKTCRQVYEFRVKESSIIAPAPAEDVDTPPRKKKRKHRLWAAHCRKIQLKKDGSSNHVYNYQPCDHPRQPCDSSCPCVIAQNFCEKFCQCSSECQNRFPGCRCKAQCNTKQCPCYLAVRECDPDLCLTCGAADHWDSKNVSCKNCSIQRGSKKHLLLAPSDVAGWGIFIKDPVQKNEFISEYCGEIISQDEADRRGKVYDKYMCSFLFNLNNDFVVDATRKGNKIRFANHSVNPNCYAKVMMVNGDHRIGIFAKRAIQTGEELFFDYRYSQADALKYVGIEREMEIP
Histone-lysine N-methyltransferase EZH2 (Homo sapiens, UniProt Q15910, Y641F), sequence (Q15910 whole entry Y641F): as the sequence (Q15910 whole entry) above, with Y641F counted along it

Consider `CCN(c1cc(-c2ccc(CN3CCN(C(=O)CCCCCCCC(=O)N[C@H](C(=O)N4C[C@H](O)C[C@H]4C(=O)NCc4ccc(-c5scnc5C)cc4)C(C)(C)C)CC3)cc2)cc(C(=O)NCc2c(C)cc(C)[nH]c2=O)c1C)C1CCOCC1`, for which the IC50 in test [1] was 8.6 µM.

On to `COc1cc2nc(N3CCN(C)CC3)nc(NC3CCN(Cc4ccccc4)CC3)c2cc1OC`, for which the IC50 in [2] was more than 15 µM.

Turning to `CCN(c1cc(-c2ccc(OCCCCCNC(=O)C[C@@H]3N=C(c4ccc(Cl)cc4)c4c(sc(C)c4C)-n4c(C)nnc43)cc2)cc(C(=O)NCc2c(C)cc(C)[nH]c2=O)c1C)C1CCOCC1`, the IC50 in [3] stood at 690 nM. Regarding `CCN(c1cc(-c2ccc(CN3CCN(CCCCCCCOc4cccc5c4C(=O)N(C4CCC(=O)NC4=O)C5=O)CC3)cc2)cc(C(=O)NCc2c(C)cc(C)[nH]c2=O)c1C)C1CCOCC1` (configuration not stated), the IC50 in test [4] is less than 5 nM. On to `Cc1cc(C)c(CNC(=O)c2c(C)cn(Cc3ccc(C(F)(F)F)cc3)c2C)c(=O)[nH]1`, for which, in test [5], the IC50 worked out at 270 µM. On to `CCN(c1cc(C(=O)NCc2c(C)cc(C)[nH]c2=O)c2cc(CN3CCCCC3)oc2c1)C1CCOCC1`, for which, in [6], half-maximal inhibition (IC50) was put at 6.4 nM. With `Cc1cc(C)c(CNC(=O)c2cc(Cl)c3c(c2C)O[C@@](C)([C@H]2CC[C@H](N(C)C)CC2)O3)c(=O)[nH]1` [VALEMETOSTAT], the IC50 in test [7] turned out to be 24 nM. The values for the GI50 in test [8], in test [9] and in test [10] were 4.8 nM, 4.8 nM and 78.3 nM, respectively.

In the case of `CCCc1cc(C)[nH]c(=O)c1CNC(=O)c1cc(-c2ccc(N3CCN(C(C)C)CC3)nc2)cc2c1cnn2C(C)C`, in [11], the EC50 is 633 nM. In addition, the IC50 in test [12] and in [13] was less than 10 nM throughout. As to `CCCc1cc(C)[nH]c(=O)c1CNC(=O)c1cc(-c2ccc(N3CCN(C)CC3)nc2)nc2c1cnn2C(C)C`, the IC50 in test [14] stood at 80 nM. Regarding `Cc1cc(C)c(CNC(=O)c2cc(Br)c3c(c2C)O[C@@](C)([C@H]2CC[C@H](N(C)C)CC2)O3)c(=O)[nH]1`, the IC50 in test [7] came to 0.62 nM. The GI50 in test [8] worked out at 4 nM; in test [15] it was 17.7 nM; in test [16], 536 nM. With `CCN1CCN(c2ccc(-c3cc(C(=O)NCc4c(C)cc(C)[nH]c4=O)c(C)c4c3O[C@](C)(CN3CCOCC3)O4)cn2)CC1`, the IC50 in test [7] was 0.55 nM. For the same compound, in test [8], the GI50 was 210 nM. Moreover, the inhibition in vivo at 100 mg/kg in [17] worked out at 82%.

Consider `Cc1cc(C)c(CNC(=O)c2cc(-c3ccc(N4CCN(CCNC(=O)C56CC7CC(CC(C7)C5)C6)CC4)nc3)cc3c2cnn3C(C)C)c(=O)[nH]1`, for which, in test [18], the IC50 stood at 120 nM.
